Data from PMC9936145, “Discovery of a cytochrome P450 enzyme catalyzing the formation of spirooxindole alkaloid scaffold” (Frontiers in Plant Science, 2023).

Test system: 3eCIS (MsCYP72056)
Conditions: 250 µM NADPH; HEPES pH 7.5; 0-300 µM hirsuteine; CPR co-expressed

Q: `C=C[C@H]1CN2CCc3c([nH]c4ccccc34)[C@H]2C[C@@H]1/C(=C\OC)C(=O)OC` [hirsuteine] was tested. Which Km did it give?
A: Its Km is 68.3 µM.
